# Key:
# Test in all cases: relative viability (nuclei count vs DMSO), 5 days (fraction); higher = more cells survive
# [1] = compound: COC1=CC=C(C=C1)CN2C=CC3=C2C=C(C=C3)C(=O)NO + C[C@]1(O)C[C@@H](c2nc(-c3ccc4ccc(-c5ccccc5)nc4c3)c3c(N)nccn32)C1 [Linsitinib] (partner 1 µM)
# Summary of the method: (§1)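 Relative viability was taken as the ratio of nuclei in treated wells to nuclei in vehicle wells. Lung cancer cell lines in 1536-well plates received compounds by pin tool one day after seeding, either one drug alone or a fixed anchor-drug dose plus five library-drug doses (not always all listed) in √10 steps. Nuclei were counted on 4× images after 5 days of treatment, and values are medians of duplicate plates.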
# [2] = compound: COC1=CC=C(C=C1)CN2C=CC3=C2C=C(C=C3)C(=O)NO + C[C@@H](Oc1cc(-c2cnn(C3CCNCC3)c2)cnc1N)c1c(Cl)ccc(F)c1Cl [Crizotinib] (partner 1 µM)
# Summary of the method: as §1
# Veliparib + Pictilisib = compound: C[C@]1(c2nc3c(C(N)=O)cccc3[nH]2)CCCN1 [Veliparib] + CS(=O)(=O)N1CCN(Cc2cc3nc(-c4cccc5[nH]ncc45)nc(N4CCOCC4)c3s2)CC1 [Pictilisib] (partner 1 µM)
# Summary of the method: as §1
# [3] = compound: COC1=CC=C(C=C1)CN2C=CC3=C2C=C(C=C3)C(=O)NO + COc1cc2c(Oc3ccc(NC(=O)C4(C(=O)Nc5ccc(F)cc5)CC4)cc3F)ccnc2cc1OCCCN1CCOCC1 [Foretinib] (partner 0.25 µM)
# Summary of the method: as §1
Cell Line,relative viability ([1]; first compound 0.253 µM),relative viability ([1]; first compound 0.8 µM),relative viability ([1]; first compound 2.53 µM),relative viability ([1]; first compound 8 µM),relative viability ([2]; first compound 0.253 µM),relative viability ([2]; first compound 0.8 µM),relative viability ([2]; first compound 2.53 µM),relative viability ([2]; first compound 8 µM),relative viability (Veliparib + Pictilisib; first compound 0.02 µM),relative viability (Veliparib + Pictilisib; first compound 0.06325 µM),relative viability (Veliparib + Pictilisib; first compound 0.2 µM),relative viability (Veliparib + Pictilisib; first compound 0.6325 µM),relative viability (Veliparib + Pictilisib; first compound 2 µM),relative viability ([3]; first compound 0.253 µM),relative viability ([3]; first compound 0.8 µM),relative viability ([3]; first compound 2.53 µM),relative viability ([3]; first compound 8 µM),relative viability ([1]; first compound 0.08 µM),relative viability ([2]; first compound 0.08 µM),relative viability ([3]; first compound 0.08 µM)
NCI-H1734,0.953,0.871,0.93,0.855,0.678,0.683,0.6,0.652,0.461,0.436,0.492,0.437,0.435,0.919,0.852,0.897,0.863,,,
HCC-827,0.94,0.942,0.981,0.883,0.968,0.898,0.961,0.878,0.936,0.957,1.01,0.984,1.06,1.13,1.09,1.05,0.996,0.994,0.87,0.834
NCI-H520,1.04,1.01,0.977,0.946,0.834,0.776,0.723,0.736,0.392,0.267,0.316,0.283,0.227,0.841,0.895,0.814,0.907,0.313,0.321,0.326
NCI-H2126,0.754,0.686,0.737,0.727,1.08,1.04,1.03,1.06,0.531,0.452,0.507,0.458,0.537,1.22,1.15,1.2,1.26,0.735,1.02,1.14
EPLC-272H,1.18,1.14,1.14,1.05,0.906,1.08,0.867,0.896,,0.227,0.283,0.278,0.0962,,0.653,0.704,0.662,0.987,0.825,0.293
HCC-366,0.98,0.636,0.673,0.696,0.476,0.534,0.413,0.352,0.114,0.15,0.122,0.152,0.15,0.994,0.89,0.992,0.923,,,0.433
EKVX,1.07,1.06,1.12,1.03,0.762,1.16,0.891,0.934,0.427,0.464,0.465,0.361,0.397,0.555,0.801,0.762,0.849,0.825,0.767,0.542
EBC-1,0.883,0.941,0.907,0.768,0.183,0.201,0.179,0.181,0.439,0.38,0.477,0.318,0.42,0.0996,0.0919,0.102,0.113,,,0.0855
201T,1.01,1.13,1.06,1.03,0.999,1.06,1.08,0.969,0.682,0.623,0.682,0.678,0.658,1.15,1.24,1.06,0.999,1.04,1.02,1.06
LC-2-ad,0.851,0.873,0.999,0.804,0.531,0.467,0.408,0.397,,0.431,0.428,0.464,0.497,0.918,0.899,0.906,0.816,0.783,0.33,0.904
COR-L 105,0.945,0.763,0.983,0.765,0.847,0.714,0.775,0.434,0.364,0.388,0.351,0.391,0.56,1.43,0.853,1.08,0.212,,,0.681
HCC-78,0.542,0.537,0.491,0.453,0.373,0.345,0.342,0.344,0.226,0.222,0.267,0.236,0.231,0.629,0.594,0.585,0.6,,,0.529
NCI-H441,0.676,0.573,0.579,0.42,0.835,0.862,0.787,0.597,0.472,0.501,0.588,0.504,0.516,1.26,0.943,1.03,0.844,0.304,1.25,0.933
NCI-H650,0.849,0.95,0.936,0.725,0.832,0.68,0.71,0.656,0.968,0.855,0.926,0.743,0.809,1.01,1.04,1.02,0.936,0.793,0.378,1.04
SK-MES-1,1.05,1.12,1.14,1.01,0.983,0.984,1,0.885,0.373,0.295,0.402,0.336,0.347,0.929,0.927,0.98,0.927,1.03,1,1.17
ABC-1,0.924,0.789,0.732,0.885,1.3,1.17,1.31,1.12,,0.702,0.609,0.735,0.851,1.14,1.02,0.935,1.14,,,
A549,0.678,0.595,0.697,0.558,0.767,0.855,0.617,0.63,0.526,0.504,0.476,0.455,0.521,0.965,0.948,0.952,0.987,,,0.802

Cell Line,relative viability ([1]; first compound 0.253 µM),relative viability ([1]; first compound 0.8 µM),relative viability ([1]; first compound 2.53 µM),relative viability ([1]; first compound 8 µM),relative viability ([2]; first compound 0.253 µM),relative viability ([2]; first compound 0.8 µM),relative viability ([2]; first compound 2.53 µM),relative viability ([2]; first compound 8 µM),relative viability (Veliparib + Pictilisib; first compound 0.02 µM),relative viability (Veliparib + Pictilisib; first compound 0.06325 µM),relative viability (Veliparib + Pictilisib; first compound 0.2 µM),relative viability (Veliparib + Pictilisib; first compound 0.6325 µM),relative viability (Veliparib + Pictilisib; first compound 2 µM),relative viability ([3]; first compound 0.253 µM),relative viability ([3]; first compound 0.8 µM),relative viability ([3]; first compound 2.53 µM),relative viability ([3]; first compound 8 µM),relative viability ([1]; first compound 0.08 µM),relative viability ([2]; first compound 0.08 µM),relative viability ([3]; first compound 0.08 µM)
A-427,1.08,1.11,1.16,1.1,0.857,1.03,0.828,0.884,0.676,0.734,0.675,0.632,0.625,1.03,1.16,1.12,1,,,
HARA,1.01,1.01,1.07,0.962,1.1,0.99,1.09,0.951,0.498,0.49,0.244,0.398,0.415,0.868,0.958,0.826,0.55,0.126,0.194,
NCI-H1944,1.18,1.38,1.21,1.1,1.18,1.1,1.09,1.08,0.344,0.311,0.338,0.323,0.351,0.874,0.853,0.887,0.912,,,
NCI-H1915,1.1,1.07,1.09,1.09,0.892,0.935,0.905,0.857,0.989,0.87,0.727,0.808,0.86,1.1,1.15,1.07,1.09,1.05,0.777,1.07
NCI-H596,1.08,1.01,0.915,0.992,0.961,0.963,0.868,1.01,0.394,0.35,0.4,0.362,0.416,0.983,0.846,0.895,0.523,0.982,1.05,0.841
NCI-H1666,0.892,0.757,0.76,0.901,1.08,1.08,0.992,1.03,0.357,0.334,0.625,0.427,0.49,1.06,0.985,0.963,1.06,0.696,1.18,0.755
NCI-H3122,1.04,1.03,1,0.997,0.275,0.292,0.317,0.284,0.576,0.599,0.673,0.552,0.611,1,0.913,0.993,0.947,0.975,0.266,0.942
PC-14,0.959,0.936,1.04,0.944,0.898,0.908,0.924,0.809,0.624,0.513,0.616,0.673,0.662,0.917,0.991,1.04,0.996,0.894,0.675,0.701
NCI-H2087,0.969,0.95,0.883,0.921,0.842,0.993,0.913,0.767,0.609,0.783,0.726,0.65,0.871,1.15,1.17,1.03,0.962,0.902,0.819,0.659
LCLC-103H,1.13,0.991,1.07,1.02,0.94,1.15,0.984,1.02,0.685,0.615,0.577,0.666,0.651,0.846,0.832,0.789,0.761,1.03,1.1,0.68
NCI-H1299,0.976,0.994,0.977,0.959,0.978,0.967,0.943,0.959,0.985,0.703,0.779,0.751,0.765,1.1,1.15,1.09,1.05,0.952,0.947,1.09
PC-3 [JPC-3],0.962,0.97,1,1.06,1.02,1.02,1.05,0.965,0.774,0.689,0.774,0.69,0.758,1.04,1.09,1.08,0.962,0.963,0.969,1
LOU-NH91,0.995,1.04,0.954,0.913,0.738,0.752,0.763,0.704,0.506,0.436,0.563,0.528,0.531,0.941,0.915,0.908,0.861,0.74,0.693,0.899
NCI-H838,1.13,1.13,1.08,0.961,0.911,0.882,0.853,0.829,0.441,0.455,0.418,0.335,0.457,1.07,1,0.995,0.982,,,
NCI-H23,0.619,0.564,0.599,0.544,0.708,0.445,0.343,0.401,0.598,0.477,0.451,0.449,0.563,1.17,0.981,0.955,0.853,0.406,0.481,0.823
NCI-H2023,0.645,0.64,0.7,0.637,0.586,0.728,0.652,0.59,0.196,0.238,0.251,0.209,0.224,0.899,0.778,0.697,0.722,0.576,0.625,0.489

# Reference: the supplement of paper PMC10307832
